Experimental data reported in patent US10975080B2, “Compounds and compositions for inhibiting the activity of SHP2” (NOVARTIS AG, priority 2015, dated 2021).
Where two headings read alike, the source gives them in different places.

Molecular target: SHP2 (Homo sapiens (Human), UniProt Q06124)
Experiment: SHP2 Allosteric Inhibition Assay
Format: biochemical
Conditions: 0.5 nM SHP2 with 0.5 μM peptide IRS1_pY1172(dPEG8)pY1222, surrogate substrate DiFMUP, 25° C.
Summary of the method: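 Phosphatase activity of bis-tyrosyl-phosphopeptide-activated SHP2 was read by prompt fluorescence from DiFMUP turnover. After 30–60 min preincubation at 25 °C, DiFMUP was added for 30 min at 25 °C. IC50s came from control-normalized dose-response fitting.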

Row | Compound | IC50 (read-out: SHP2 IC50) | IC50 (read-out: IC50)
1 | Cn1c(N2CCC3(CC2)COC[C@H]3N)nc2[nH]nc(-c3cccc(Cl)c3Cl)c2c1=O [Example 20, (S)-6-(4-amino-2-oxa-8-azaspiro[4.5]decan-8-yl)-3-(2,3-dichlorophenyl)-5-methyl-1,5-dihydro-4H-pyrazolo[3,4-d]pyrimidin-4-one] | 50 nM | 
2 | Cn1c(N2CCC3(CCC[C@H]3N)CC2)nc2[nH]nc(-c3ccccc3)c2c1=O [Example 19, (R)-6-(1-amino-8-azaspiro[4.5]decan-8-yl)-5-methyl-3-phenyl-1,5-dihydro-4H-pyrazolo[3,4-d]pyrimidin-4-one] | 46 nM | 

Now from value to molecule:

Row | IC50 (read-out: SHP2 IC50) | IC50 (read-out: IC50) | Compound
3 | 44 nM |  | Cn1c(N2CCC3(CC[C@@H]3N)CC2)nc2[nH]nc(-c3cccc(Cl)c3Cl)c2c1=O [Example 17, (S)-6-(1-amino-7-azaspiro[3.5]nonan-7-yl)-3-(2,3-dichlorophenyl)-5-methyl-1,5-dihydro-4H-pyrazolo[3,4-d]pyrimidin-4-one]
4 |  | 27 nM | C[C@@H]1OCC2(CCN(c3nc4[nH]nc(Sc5ccnc(N)c5Cl)c4c(=O)n3C)CC2)[C@@H]1N [Example 13, 3-((2-Amino-3-chloropyridin-4-yl)thio)-6-((3S,4S)-4-amino-3-methyl-2-oxa-8-azaspiro[4.5]decan-8-yl)-5-methyl-1,5-dihydro-4H-pyrazolo[3,4-d]pyrimidin-4-one]
5 | 9 nM |  | Cc1nc(N)ccc1-c1n[nH]c2nc(N3CCC4(CC3)CC(F)(F)C[C@H]4N)n(C)c(=O)c12 [Example 49, (R)-3-(6-amino-2-methylpyridin-3-yl)-6-(1-amino-3,3-difluoro-8-azaspiro[4.5]decan-8-yl)-5-methyl-1,5-dihydro-4H-pyrazolo[3,4-d]pyrimidin-4-one]
